For the test, the target named is hSTING(R232) (Homo sapiens, UniProt Q86WV6, H232R). Briefly: Luciferase reporter assay in HEK293T-hSTING-Luciferase cells, R232 (wild type) human STING. The format is cell-based. The note with it: 20 hr stimulation, read-out: R232 human activity (EC50 range). An excerpt:
Stable Cell Line Generation • a) Stable STING expressing cells—Stable HEK293T STING-expressing cell lines were generated using plasmids purchased from Invivogen, CA, USA, that contain STING cDNA cloned into the pUNO-1 vector under hEF1-HTLV promoter and containing the Blasticidin selection cassette. The plasmids hSTING(R232), hSTING(H232), hSTING(HAQ) were directly procured from Invivogen while hSTING (AQ) and hSTING (Q) were derived from hSTING(HAQ) and hSTING (R232) plasmids respectively by using a PCR based site directed mutagenesis method. These vectors were individually transfected into HEK293T cells using Lipofectamine (Invitrogen) and transfected cells were selected under Blasticidin selection. These transfected cells were further subjected to clonal selection using the limiting dilution method to obtain clonally pure populations of HEK cells transfected with each of the above mentioned human STING variants. Only those clones were selected in which ligand independent activation of STING was minimal. • b) Stable Luciferase reporter gene expressing cells—Stable HEK293T Luciferase reporter gene expressing cell lines were generated using pCDNA4 plasmids under an IRF-inducible promoter. This promoter is comprised of five tandem interferon-stimulated response elements (ISRE) fused to an ISG54 minimal promoter. This vector was transfected into HEK293T cells using Lipofectamine (Invitrogen) and transfected cells were selected under Zeocin selection. These transfected cells were further subjected to clonal selection using the limiting dilution method to obtain clonally pure populations of HEK cells transfected the Luciferase reporter construct. Only those clones were selected in which ligand independent induction of luciferase was minimal.
5×10^5 clonally selected HEK293T-hSTING-Luciferase cells were seeded in 384-well plates in growth medium and stimulated with novel compounds. After 20 hr of stimulation supernatant were removed and secretary reporter gene activity were measured using the Quanti-Luc detection system (Invivogen) on a Spectramax i3X luminometer.
In the tables below, EC50 value ranges for exemplary compounds are given.
All compounds were first tested in a primary screen to obtain a ‘fold-induction’ over baseline levels of protein activity.
hSTING(R232), sequence (Q86WV6 whole entry H232R): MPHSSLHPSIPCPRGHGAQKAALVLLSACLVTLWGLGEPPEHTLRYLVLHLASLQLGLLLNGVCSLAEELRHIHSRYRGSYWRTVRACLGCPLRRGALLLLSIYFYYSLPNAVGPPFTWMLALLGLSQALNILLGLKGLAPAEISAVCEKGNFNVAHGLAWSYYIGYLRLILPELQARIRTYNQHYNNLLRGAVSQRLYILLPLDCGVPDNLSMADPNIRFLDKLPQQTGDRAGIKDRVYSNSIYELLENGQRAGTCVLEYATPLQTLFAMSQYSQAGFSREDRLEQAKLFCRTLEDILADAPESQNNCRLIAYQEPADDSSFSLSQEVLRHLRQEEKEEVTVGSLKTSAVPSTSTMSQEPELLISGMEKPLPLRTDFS
Take `CN1Cc2ccc(C(=O)NCc3cccc(-c4ccn(C)n4)c3)cc2N(Cc2c(F)cccc2Cl)C1=O` [Example 28, 1-(2-chloro-6-fluorobenzyl)-3-methyl-N-(3-(1-methyl-1H-pyrazol-3-yl)benzyl)-2-oxo-1,2,3,4-tetrahydroquinazoline-7-carboxamide]: the EC50 is > 10 µM.

For `CN1Cc2ccc(C(=O)NCc3cccc(-c4ccnn4C)c3)cc2N(Cc2c(F)cccc2Cl)C1=O` [Example 29, 1-(2-chloro-6-fluorobenzyl)-3-methyl-N-(3-(1-methyl-1H-pyrazol-5-yl)benzyl)-2-oxo-1,2,3,4-tetrahydroquinazoline-7-carboxamide], the EC50 was > 10 µM.

`CN1Cc2ccc(C(=O)NCc3ccccc3F)cc2N(Cc2c(F)cccc2Cl)C1=O` [Example 30, 1-(2-chloro-6-fluorobenzyl)-N-(2-fluorobenzyl)-3-methyl-2-oxo-1,2,3,4-tetrahydroquinazoline-7-carboxamide]: the EC50 was 1 to 10 µM.

As to `CN1CCN(c2cccc(CNC(=O)c3ccc4c(c3)N(Cc3c(F)cccc3Cl)C(=O)N(C)C4)c2)CC1` [Example 31], the 50% effective concentration (EC50) was > 10 µM.

Take `CN1Cc2ccc(C(=O)NCc3ccc4occc4c3)cc2N(Cc2c(F)cccc2Cl)C1=O` [Example 32, N-(benzofuran-5-ylmethyl)-1-(2-chloro-6-fluorobenzyl)-3-methyl-2-oxo-1,2,3,4-tetrahydroquinazoline-7-carboxamide]: the EC50 is 1 to 10 µM.

With `Cc1cc(CN2C(=O)N(C)Cc3ccc(C(=O)NCc4c(F)cc(F)cc4F)cc32)no1` [Example 33, 3-methyl-1-((5-methylisoxazol-3-yl)methyl)-2-oxo-N-(2,4,6-trifluorobenzyl)-1,2,3,4-tetrahydroquinazoline-7-carboxamide], the EC50 lay in the range of 1 to 10 µM.

Turning to `Cn1cnc(N2Cc3ccc(C(=O)NCc4c(F)cc(F)cc4F)cc3N(Cc3c(F)cccc3Cl)C2=O)c1` [Example 34, 1-(2-chloro-6-fluorobenzyl)-3-(1-methyl-1H-imidazol-4-yl)-2-oxo-N-(2,4,6-trifluorobenzyl)-1,2,3,4-tetrahydroquinazoline-7-carboxamide], the EC50 was > 10 µM.

`CN1Cc2ccc(C(=O)NCc3c(F)cc(F)cc3F)cc2N(Cc2cnsn2)C1=O` [Example 35, l-((l,2,5-thiadiazol-3-yl)methyl)-3-methyl-2-oxo-N-(2,4,6-trifluorobenzyl)-1,2,3,4-tetrahydroquinazoline-7-carboxamide]: the EC50 was > 10 µM.

`Cc1nc(CN2C(=O)N(C)Cc3ccc(C(=O)NCc4c(F)cc(F)cc4F)cc32)co1` [Example 36, 3-methyl-1-((2-methyloxazol-4-yl)methyl)-2-oxo-N-(2,4,6-trifluorobenzyl)-l,2,3,4-tetrahydroquinazoline-7-carboxamide]: the EC50 was > 10 µM.

`CN1Cc2ccc(C(=O)NCc3c(F)cc(F)cc3F)cc2N(Cc2cn(C)cn2)C1=O` [Example 37, 3-methyl-1-((1-methyl-1H-imidazol-4-yl)methyl)-2-oxo-N-(2,4,6-trifluorobenzyl)-1,2,3,4-tetrahydroquinazoline-7-carboxamide]: the concentration giving a half-maximal response (EC50) is > 10 µM.

In the case of `Cc1ccc(-c2nc(CN3C(=O)N(C)Cc4ccc(C(=O)NCc5c(F)cc(F)cc5F)cc43)c(C)o2)cc1` [Example 40, 3-methyl-1-((5-methyl-2-(p-tolyl)oxazol-4-yl)methyl)-2-oxo-N-(2,4,6-trifluorobenzyl)-1,2,3,4-tetrahydroquinazoline-7-carboxamide], the EC50 was > 10 µM.

With `COc1cccc(F)c1CNC(=O)c1ccc2c(c1)N(Cc1c(F)cccc1Cl)C(=O)N(C)C2` [Example 41, 1-(2-chloro-6-fluorobenzyl)-N-(2-fluoro-6-methoxybenzyl)-3-methyl-2-oxo-1,2,3,4-tetrahydroquinazoline-7-carboxamide], the EC50 is > 10 µM.

On to `Cc1oc(-c2ccc(F)cc2)nc1CN1C(=O)N(C)Cc2ccc(C(=O)NCc3c(F)cc(F)cc3F)cc21` [Example 42, l-((2-(4-fluorophenyl)-5-methyloxazol-4-yl)methyl)-3-methyl-2-oxo-N-(2,4,6-trifluorobenzyl)-1,2,3,4-tetrahydroquinazoline-7-carboxamide], for which the EC50 fell in the range of 1 to 10 µM.

In the case of `CN1Cc2ccc(C(=O)NCc3cccc4c3OCO4)cc2N(Cc2c(F)cccc2Cl)C1=O` [Example 43, N-(benzo[d][1,3]dioxol-4-ylmethyl)-1-(2-chloro-6-fluorobenzyl)-3-methyl-2-oxo-1,2,3,4-tetrahydroquinazoline-7-carboxamide], the EC50 was > 10 µM.

For `CN1Cc2ccc(C(=O)NCc3cccc4c3OCCO4)cc2N(Cc2c(F)cccc2Cl)C1=O` [Example 44, l-(2-chloro-6-fluorobenzyl)-N-((2,3-dihydrobenzo[b][1,4]dioxin-5-yl)methyl)-3-methyl-2-oxo-1,2,3,4-tetrahydroquinazoline-7-carboxamide], the EC50 is > 10 µM.

Regarding `CN1Cc2ccc(C(=O)NCc3c(F)cc(F)cc3F)cc2N(Cc2cn3cc(F)ccc3n2)C1=O` [Example 45, 1-((6-fluoroimidazo[1,2-a]pyridin-2-yl)methyl)-3-methyl-2-oxo-N-(2,4,6-trifluorobenzyl)-l,2,3,4-tetrahydroquinazoline-7-carboxamide], the EC50 is > 10 µM.

For the compound `COc1cc(F)ccc1CN1C(=O)N(C)Cc2ccc(C(=O)NCc3c(F)cc(F)cc3F)cc21` [Example 46, l-(4-fluoro-2-methoxybenzyl)-3-methyl-2-oxo-N-(2,4,6-trifluorobenzyl)-1,2,3,4-tetrahydroquinazoline-7-carboxamide], the 50% effective concentration (EC50) was 1 to 10 µM.

On to `COc1cccc2cc(CNC(=O)c3ccc4c(c3)N(Cc3c(F)cccc3Cl)C(=O)N(C)C4)oc12` [Example 47, 1-(2-chloro-6-fluorobenzyl)-N-((7-methoxybenzofuran-2-yl)methyl)-3-methyl-2-oxo-1,2,3,4-tetrahydroquinazoline-7-carboxamide], for which the EC50 is > 10 µM.

In the case of `CN1Cc2ccc(C(=O)NCc3cc4cc([N+](=O)[O-])ccc4o3)cc2N(Cc2c(F)cccc2Cl)C1=O` [Example 48, 1-(2-chloro-6-fluorobenzyl)-3-methyl-N-((5-nitrobenzofuran-2-yl)methyl)-2-oxo-1,2,3,4-tetrahydroquinazoline-7-carboxamide], the EC50 is > 10 µM.

Consider `CON1Cc2ccc(C(=O)NCc3c(F)cc(F)cc3F)cc2N(Cc2c(F)cccc2Cl)C1=O` [Example 49, 1-(2-chloro-6-fluorobenzyl)-3-methoxy-2-oxo-N-(2,4,6-trifluorobenzyl)-1,2,3,4-tetrahydroquinazoline-7-carboxamide], for which the EC50 was in the range of 1 to 10 µM.

For the compound `CN1Cc2ccc(C(=O)NCc3cccc4occc34)cc2N(Cc2c(F)cccc2Cl)C1=O` [Example 50, N-(benzofuran-4-ylmethyl)-1-(2-chloro-6-fluorobenzyl)-3-methyl-2-oxo-1,2,3,4-tetrahydroquinazoline-7-carboxamide], the EC50 was > 10 µM.

`CN1Cc2ccc(C(=O)NCc3ccc4cnn(C)c4c3)cc2N(Cc2c(F)cccc2Cl)C1=O` [Example 51, 1-(2-chloro-6-fluorobenzyl)-3-methyl-N-((1-methyl-1H-indazol-6-yl)methyl)-2-oxo-1,2,3,4-tetrahydroquinazoline-7-carboxamide]: the EC50 was > 10 µM.

On to `CN1Cc2ccc(C(=O)NCc3ccc4ccoc4c3)cc2N(Cc2c(F)cccc2Cl)C1=O` [Example 52, N-(benzofuran-6-ylmethyl)-1-(2-chloro-6-fluorobenzyl)-3-methyl-2-oxo-1,2,3,4-tetrahydroquinazoline-7-carboxamide], for which the EC50 is 1 to 10 µM.

As for `CN1Cc2ccc(C(=O)NCc3c(F)cc(F)cc3F)cc2N(Cc2ccnn2C)C1=O` [Example 53, 3-methyl-1-((1-methyl-1H-pyrazol-5-yl)methyl)-2-oxo-N-(2,4,6-trifluorobenzyl)-1,2,3,4-tetrahydroquinazoline-7-carboxamide], the EC50 was > 10 µM.

Turning to `CN1Cc2ccc(C(=O)NCc3c(F)cc(F)cc3F)cc2N(Cc2cn(C)nn2)C1=O` [Example 55, 3-methyl-1-((1-methyl-1H-1,2,3-triazol-4-yl)methyl)-2-oxo-N-(2,4,6-trifluorobenzyl)-1,2,3,4-tetrahydroquinazoline-7-carboxamide], the concentration for a half-maximal effect (EC50) is > 10 µM.

With `CN1Cc2ccc(C(=O)NCc3c(F)cc(F)cc3F)cc2N(Cc2c(F)cccc2C(F)(F)F)C1=O` [Example 56, 1-(2-fluoro-6-(trifluoromethyl)benzyl)-3-methyl-2-oxo-N-(2,4,6-trifluorobenzyl)-1,2,3,4-tetrahydroquinazoline-7-carboxamide], the EC50 fell in the range of 1 to 10 µM.

As for `Cc1cc(CN2C(=O)N(C)Cc3ccc(C(=O)NCc4c(F)cc(F)cc4F)cc32)nn1C` [Example 57, l-((l,5-dimethyl-1H-pyrazol-3-yl)methyl)-3-methyl-2-oxo-N-(2,4,6-trifluorobenzyl)-1,2,3,4-tetrahydroquinazoline-7-carboxamide], the EC50 is > 10 µM.

As a reminder, the EC50 is the concentration that produces a half-maximal response.

Source of the values: patent publication US11571423B2, “Small molecule modulators of human sting” (Curadev Pharma Limited, priority 2017, dated 2023).
